The values that follow are results of earlier work, collected in publication PMC8476002, “Bergamottin a CYP3A inhibitor found in grapefruit juice inhibits prostate cancer cell growth by downregulating androgen receptor signaling and promoting G0/G1 cell cycle block and apoptosis” (PLoS ONE, 2021).

For one data set, the system named is cytoplasmic AR. Set-up: method as in PMID 32316460. The settings on record: cited from earlier work.
In another data set the test system is cell growth. To be noted: earlier work of the authors; cited from earlier work.

SMILES strings stand for the structures.

For `CC(C)c1nc(CN(C)C(=O)N[C@H](C(=O)N[C@@H](Cc2ccccc2)C[C@H](O)[C@H](Cc2ccccc2)NC(=O)OCc2cncs2)C(C)C)cs1` [ritonavir], the “cytoplasmic AR” value in the data set on cytoplasmic AR is “increase in cytoplasmic AR”.

Regarding `CC[C@]1(C)C[C@@H](OC(=O)CSc2nnc(N)[nH]2)[C@]2(C)[C@H](C)CC[C@]3(CCC(=O)[C@H]32)[C@@H](C)[C@@H]1O` [azamulin], the cell growth entry in the data set with cell growth is “cell growth is inhibited”.
